For 21 compounds, T/C results are on record in PubChem BioAssay AID206 (DTP/NCI, 2004).

Values joined by “and” are separate entries in the source; they are usually repeats but may differ in a detail not shown here. Equal entries are not always repeated. Inconclusive results are not listed.

This assay deals with nude mice, HT29 intrarenal xenograft, tumor weight T/C. Description: NCI In Vivo Anticancer Drug Screen. Data for tumor model HT29;CX-1 Human Adenocarcinoma (MER+) (intrarenal inoculation) in NU/NU Swiss (nude) mice. The note with it: endpoint: mean tumor weight change, higher = larger tumour. In short, it runs like this:
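Tumor-bearing mice received test compound or vehicle, and tumor size or survival was recorded. Values are the treated-group measurement divided by the vehicle-treated control measurement.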

[1] abbreviates: dose: 1.0 mg/kg/injection, schedule: Q01DX010 (sc), vehicle: saline.
Setting [2] is: dose: 150.0 mg/kg/injection, schedule: Q04DX004 (sc), vehicle: suspension in saline.
Where [3] appears, read: dose: 300.0 mg/kg/injection, schedule: Q04DX004 (sc), vehicle: suspension in saline.
Where [4] appears, read: dose: 600.0 mg/kg/injection, schedule: Q04DX004 (sc), vehicle: suspension in saline.
Setting [5] is: dose: 1200.0 mg/kg/injection, schedule: Q04DX004 (sc), vehicle: suspension in saline.
Setting [6] is: dose: 300.0 mg/kg/injection, schedule: Q04DX004 (sc), vehicle: saline with Tween-80.
The mark [7] stands for this setting: dose: 600.0 mg/kg/injection, schedule: Q04DX004 (sc), vehicle: saline with Tween-80.

`Nc1nnc[se]1`: the T/C was 58 % of control (dose: 50.0 mg/kg/injection, schedule: Q04DX004 (sc), vehicle: saline with Tween-80); 33 % of control (dose: 100.0 mg/kg/injection, schedule: Q04DX004 (sc), vehicle: saline with Tween-80); 34 % of control (dose: 200.0 mg/kg/injection, schedule: Q04DX004 (sc), vehicle: saline with Tween-80); 23 % of control (dose: 400.0 mg/kg/injection, schedule: Q04DX004 (sc), vehicle: saline with Tween-80).
As to `S=P(N1CC1)(N1CC1)N1CC1`, the T/C is 34 % of control under setting [1] and 80 % of control (dose: 2.0 mg/kg/injection, schedule: Q01DX010 (sc), vehicle: saline).
As to `CS(=O)(=O)CS(=O)(=O)OCCCl`, the T/C is 363 % of control (dose: 37.5 mg/kg/injection, schedule: Q04DX004 (sc), vehicle: suspension in saline); 187 % of control (dose: 75.0 mg/kg/injection, schedule: Q04DX004 (sc), vehicle: suspension in saline); 150 % of control under setting [2].
As for `O=c1[nH]cnc2[nH]ncc12`, the T/C was 33 % of control under setting [2], 31 % of control under setting [3], 21 % of control under setting [4] and 31 % of control under setting [5].
Turning to `O=c1[nH]cnc2c1ccn2C1OC(CO)C(O)C1O` (stereo unspecified), the T/C (dose: 5.0 mg/kg/injection, schedule: Q04DX004 (sc), vehicle: saline) is 48 % of control; the T/C (dose: 10.0 mg/kg/injection, schedule: Q04DX004 (sc), vehicle: saline) was 61 % of control; the T/C (dose: 20.0 mg/kg/injection, schedule: Q04DX004 (sc), vehicle: saline) is 69 % of control; the T/C (dose: 40.0 mg/kg/injection, schedule: Q04DX004 (sc), vehicle: saline) is 97 % of control.
`NC(=S)c1ncn(C2OC(CO)C(O)C2O)c1N` (stereo unspecified): the T/C is, setting by setting: under setting [2], 95 % of control; under setting [3], 120 % of control; under setting [4], 102 % of control; under setting [5], 66 % of control.
For `CC(C)CCCCCCCCCCCCC(=O)NCC(=O)NC1C(C)OC(Nc2ncnc3nc[nH]c23)C(O)C1O` (stereo unspecified), the T/C is, setting by setting: (dose: 2.0 mg/kg/injection, schedule: Q01DX010 (sc), vehicle: distilled water + Tween-80) -35 % of control; (dose: 2.0 mg/kg/injection, schedule: Q01DX010 (sc), vehicle: saline with Tween-80) -6 % of control; (dose: 4.0 mg/kg/injection, schedule: Q04DX004 (sc), vehicle: distilled water + Tween-80) 37 % of control; (dose: 8.0 mg/kg/injection, schedule: Q01DX010 (sc), vehicle: distilled water + Tween-80) 20 % of control; (dose: 8.0 mg/kg/injection, schedule: Q04DX004 (sc), vehicle: distilled water + Tween-80) 36 % of control; (dose: 16.0 mg/kg/injection, schedule: Q01DX010 (sc), vehicle: saline with Tween-80) 23 % of control.
For `Oc1cc2c3c(c1)c1cc4c(cc1c[n+]3CC2)OCO4`, the T/C is, setting by setting: (dose: 100.0 mg/kg/injection, schedule: Q04DX004 (sc), vehicle: water) 53 % of control; (dose: 200.0 mg/kg/injection, schedule: Q04DX004 (sc), vehicle: water) 61 % of control; (dose: 400.0 mg/kg/injection, schedule: Q04DX004 (sc), vehicle: water) 73 % of control.
With `OC(C1CO1)C(O)C1CO1` (stereo unspecified), the T/C is 113 % of control (dose: 0.5 mg/kg/injection, schedule: Q01DX010 (sc), vehicle: saline) and 52 % of control under setting [1].
As to `CNC(=O)c1cccc2c(Nc3ccc(NS(C)(=O)=O)cc3OC)c3cccc(C)c3nc12`, the T/C (dose: 50.0 mg/kg/injection, schedule: Q04DX004 (sc), vehicle: other) is 72 % of control and the T/C (dose: 100.0 mg/kg/injection, schedule: Q04DX004 (sc), vehicle: other) was 39 % of control.
For `CO[C@H](/C(C)=C/C=C/C(C)=C/c1coc(C)n1)[C@H](C)[C@H]1C[C@@H](O)[C@@]2(C)O[C@H]2/C=C/[C@@H](C)[C@@H]2C[C@@H](CC(=O)O2)C[C@H]2O[C@@H]2C(=O)O1`, the T/C was 87 % of control (dose: 0.12 mg/kg/injection, schedule: Q04DX004 (sc), vehicle: Klucel (hydroxypropylcellulose) (HPC)); 45 % of control (dose: 0.25 mg/kg/injection, schedule: Q04DX004 (sc), vehicle: Klucel (hydroxypropylcellulose) (HPC)); 30 % of control (dose: 0.5 mg/kg/injection, schedule: Q04DX004 (sc), vehicle: Klucel (hydroxypropylcellulose) (HPC)).
Regarding `Nc1nc(N)c2c(Cl)c(CNc3ccc(Cl)c(Cl)c3)ccc2n1`, the T/C was 85 % of control (dose: 9.38 mg/kg/injection, schedule: Q04DX004 (sc), vehicle: saline with Tween-80); 60 % of control (dose: 18.75 mg/kg/injection, schedule: Q04DX004 (sc), vehicle: saline with Tween-80); 89 % of control and 94 % of control (dose: 37.5 mg/kg/injection, schedule: Q04DX004 (sc), vehicle: saline with Tween-80); 91 % of control and 97 % of control (dose: 75.0 mg/kg/injection, schedule: Q04DX004 (sc), vehicle: saline with Tween-80); 113 % of control (dose: 150.0 mg/kg/injection, schedule: Q04DX004 (sc), vehicle: saline with Tween-80); 64 % of control under setting [6].
For `Cc1ccc(NC(=O)Oc2ccc(Br)cc2Br)c([N+](=O)[O-])c1`, the T/C runs as follows: under setting [6], 35 % of control; under setting [7], 52 % of control; (dose: 1200.0 mg/kg/injection, schedule: Q04DX004 (sc), vehicle: saline with Tween-80) 69 % of control.
Take `CC(=O)[O][Pb]([O]C(C)=O)([c]1ccccc1)[c]1ccccc1`: the T/C was 120 % of control (dose: 250.0 mg/kg/injection, schedule: Q04DX004 (sc), vehicle: Klucel (hydroxypropylcellulose) (HPC)); 64 % of control (dose: 500.0 mg/kg/injection, schedule: Q04DX004 (sc), vehicle: Klucel (hydroxypropylcellulose) (HPC)); 44 % of control (dose: 1000.0 mg/kg/injection, schedule: Q04DX004 (sc), vehicle: Klucel (hydroxypropylcellulose) (HPC)); 118 % of control (dose: 2000.0 mg/kg/injection, schedule: Q04DX004 (sc), vehicle: Klucel (hydroxypropylcellulose) (HPC)).
In the case of `O=CC(O)C(O)C(O)C(O)C(=O)O.[NH-]C1CCCCC1[NH-].[Pt+2]` (stereo unspecified), the T/C runs as follows: (dose: 9.38 mg/kg/injection, schedule: Q04DX004 (sc), vehicle: suspension in saline) 44 % of control; (dose: 18.75 mg/kg/injection, schedule: Q04DX004 (sc), vehicle: suspension in saline) 62 % of control.
Consider `[N-]=[N+]=CC(=O)CCC(=O)C=[N+]=[N-]`, for which the T/C (dose: 36.0 mg/kg/injection, schedule: Q04DX004 (sc), vehicle: DMSO) is 85 % of control and 99 % of control; the T/C (dose: 72.0 mg/kg/injection, schedule: Q04DX004 (sc), vehicle: DMSO) is 79 % of control.
As to `CC[C@](C)(O)C(=O)O[C@H]1C(=O)O[C@@H]2C[C@H]3C(C)=CC(=O)[C@@H](O)[C@]3(C)[C@H]3[C@@]4(O)OC[C@]32[C@@H]1[C@@H](C)[C@H]4O`, the T/C was 55 % of control (dose: 0.25 mg/kg/injection, schedule: Q01DX010 (sc), vehicle: Klucel (hydroxypropylcellulose) (HPC)); 80 % of control (dose: 0.5 mg/kg/injection, schedule: Q01DX010 (sc), vehicle: Klucel (hydroxypropylcellulose) (HPC)); 61 % of control (dose: 1.0 mg/kg/injection, schedule: Q01DX010 (sc), vehicle: Klucel (hydroxypropylcellulose) (HPC)); 73 % of control (dose: 2.0 mg/kg/injection, schedule: Q01DX010 (sc), vehicle: Klucel (hydroxypropylcellulose) (HPC)).
For the compound `C=C1C(=O)C23[C@H](O)C1CC[C@H]2[C@]12COC3(O)[C@@H](O)[C@@H]1C(C)(C)CC[C@@H]2O`, the T/C (dose: 25.0 mg/kg/injection, schedule: Q04DX004 (sc), vehicle: Klucel (hydroxypropylcellulose) (HPC)) is 80 % of control.
For the compound `CC[C@]1(O)C[C@H]2CN(CCc3c([nH]c4ccccc34)[C@@](C(=O)OC)(c3cc4c(cc3OC)N(C=O)[C@H]3[C@@](O)(C(=O)OC)[C@H](OC(C)=O)[C@]5(CC)C=CCN6CC[C@]43[C@@H]65)C2)C1`, the T/C is 86 % of control (dose: 0.13 mg/kg/injection, schedule: Q01DX010 (sc), vehicle: saline) and 84 % of control (dose: 0.25 mg/kg/injection, schedule: Q01DX010 (sc), vehicle: saline).
For `CN1CCN(c2ccc3nc(-c4ccc5nc(-c6ccc(O)cc6)[nH]c5c4)[nH]c3c2)CC1`, the T/C runs as follows: (dose: 100.0 mg/kg/injection, schedule: Q04DX004 (sc), vehicle: saline) 35 % of control; (dose: 200.0 mg/kg/injection, schedule: Q04DX004 (sc), vehicle: saline) 61 % of control; (dose: 800.0 mg/kg/injection, schedule: Q04DX004 (sc), vehicle: saline) 56 % of control.
For the compound `CNC(=O)n1c(N)nc(-c2ccccc2)c1-c1ccccc1`, the T/C by setting is: under setting [6], 92 % of control; under setting [7], 38 % of control.
